Data taken from PubChem BioAssay (NCI).
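Assay format: 96-well plates, 48-hour exposure. GI50: concentration for 50% inhibition of growth. TGI denotes the concentration required for complete inhibition of growth.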

What was measured:
Experiment in all cases: growth of human tumour cells (NCI), 48 h; in the data active means GI50 below about 0.43 µM; inactive means the rest
786-0 renal = test system: 786-0 renal
HCC-2998 colon = test system: HCC-2998 colon
ACHN renal = test system: ACHN renal
SK-OV-3 ovarian = test system: SK-OV-3 ovarian
MDA-MB-435 = test system: MDA-MB-435
HCT-116 colon = test system: HCT-116 colon
OVCAR-5 ovarian = test system: OVCAR-5 ovarian
KM12 colon = test system: KM12 colon
MCF7 breast = test system: MCF7 breast
HOP-92 NSCLC = test system: HOP-92 NSCLC
SF-295 CNS = test system: SF-295 CNS
UACC-62 melanoma = test system: UACC-62 melanoma
COLO 205 colon = test system: COLO 205 colon
MALME-3M melanoma = test system: MALME-3M melanoma
SF-268 CNS = test system: SF-268 CNS
K-562 leukemia = test system: K-562 leukemia
NCI/ADR-RES ovarian = test system: NCI/ADR-RES ovarian
HCT-15 colon = test system: HCT-15 colon
SK-MEL-28 melanoma = test system: SK-MEL-28 melanoma
LOX IMVI melanoma = test system: LOX IMVI melanoma
NCI-H23 lung = test system: NCI-H23 lung
CAKI-1 renal = test system: CAKI-1 renal
EKVX NSCLC = test system: EKVX NSCLC
DU-145 prostate = test system: DU-145 prostate
RXF 393 renal = test system: RXF 393 renal
NCI-H522 lung = test system: NCI-H522 lung
M14 melanoma = test system: M14 melanoma
HT29 colon = test system: HT29 colon
SNB-19 CNS = test system: SNB-19 CNS
SK-MEL-2 melanoma = test system: SK-MEL-2 melanoma
TK-10 renal = test system: TK-10 renal
HOP-62 NSCLC = test system: HOP-62 NSCLC
A498 renal = test system: A498 renal
MOLT-4 leukemia = test system: MOLT-4 leukemia
SK-MEL-5 melanoma = test system: SK-MEL-5 melanoma
A549 NSCLC = test system: A549 NSCLC
SF-539 CNS = test system: SF-539 CNS
OVCAR-3 ovarian = test system: OVCAR-3 ovarian
OVCAR-4 ovarian = test system: OVCAR-4 ovarian
SN12C renal = test system: SN12C renal
OVCAR-8 ovarian = test system: OVCAR-8 ovarian
U251 CNS = test system: U251 CNS
PC-3 prostate = test system: PC-3 prostate
NCI-H226 lung = test system: NCI-H226 lung
IGROV1 ovarian = test system: IGROV1 ovarian
UACC-257 melanoma = test system: UACC-257 melanoma
T-47D breast = test system: T-47D breast
UO-31 renal = test system: UO-31 renal
CCRF-CEM leukemia = test system: CCRF-CEM leukemia
NCI-H460 lung = test system: NCI-H460 lung
HL-60(TB) leukemia = test system: HL-60(TB) leukemia
MDA-MB-231 breast = test system: MDA-MB-231 breast
SR leukemia = test system: SR leukemia
SNB-75 CNS = test system: SNB-75 CNS
SW-620 colon = test system: SW-620 colon

O=CC12c3ccccc3C(c3ccccc31)C1C(=O)NC(=O)C12 (centres undefined)
> 100 µM: TGI (786-0 renal) | TGI (HCC-2998 colon) | TGI (ACHN renal) | TGI (SK-OV-3 ovarian) | TGI (MDA-MB-435) | TGI (HCT-116 colon) | TGI (OVCAR-5 ovarian) | TGI (KM12 colon) | TGI (HOP-92 NSCLC) | TGI (SF-295 CNS) | TGI (UACC-62 melanoma) | TGI (COLO 205 colon) | TGI (MALME-3M melanoma) | TGI (SF-268 CNS) | TGI (K-562 leukemia) | TGI (NCI/ADR-RES ovarian) | TGI (HCT-15 colon) | TGI (SK-MEL-28 melanoma) | TGI (LOX IMVI melanoma) | TGI (NCI-H23 lung) | TGI (CAKI-1 renal) | TGI (EKVX NSCLC) | TGI (DU-145 prostate) | TGI (RXF 393 renal) | TGI (NCI-H522 lung) | TGI (M14 melanoma) | TGI (HT29 colon) | TGI (SNB-19 CNS) | TGI (SK-MEL-2 melanoma) | TGI (TK-10 renal) | TGI (HOP-62 NSCLC) | TGI (MOLT-4 leukemia) | TGI (SK-MEL-5 melanoma) | TGI (A549 NSCLC) | TGI (SF-539 CNS) | TGI (OVCAR-3 ovarian) | TGI (OVCAR-4 ovarian) | TGI (SN12C renal) | TGI (OVCAR-8 ovarian) | TGI (U251 CNS) | TGI (PC-3 prostate) | TGI (NCI-H226 lung) | TGI (IGROV1 ovarian) | TGI (UACC-257 melanoma) | TGI (T-47D breast) | TGI (UO-31 renal) | TGI (CCRF-CEM leukemia) | TGI (NCI-H460 lung) | TGI (HL-60(TB) leukemia) | TGI (MDA-MB-231 breast) | TGI (SR leukemia) | TGI (SNB-75 CNS) | TGI (SW-620 colon)
48.2 µM: TGI (A498 renal)
47.7 µM: TGI (MCF7 breast)

COc1ccc2c(NCCCCCCCCNc3c4ccccc4nc4cc(OC)ccc34)c3ccccc3nc2c1
active: GI50 (HCC-2998 colon) 0.0718 µM | GI50 (MCF7 breast) 0.0279 µM | GI50 (K-562 leukemia) 0.0529 µM | GI50 (DU-145 prostate) 0.0498 µM | GI50 (RXF 393 renal) 0.117 µM | GI50 (NCI-H522 lung) 0.011 µM | GI50 (SK-MEL-2 melanoma) 0.162 µM | GI50 (TK-10 renal) 0.126 µM | GI50 (HOP-62 NSCLC) 0.0658 µM | GI50 (A498 renal) 0.129 µM | GI50 (MOLT-4 leukemia) 0.0546 µM | GI50 (OVCAR-4 ovarian) 0.0938 µM | GI50 (NCI-H226 lung) 0.128 µM | GI50 (UACC-257 melanoma) 0.221 µM | GI50 (T-47D breast) 0.0508 µM | GI50 (UO-31 renal) 0.0488 µM | GI50 (CCRF-CEM leukemia) 0.0253 µM | GI50 (HL-60(TB) leukemia) 0.363 µM
2.32 µM: TGI (MOLT-4 leukemia)
0.332 µM: TGI (RXF 393 renal)
0.295 µM: TGI (T-47D breast)
0.446 µM: TGI (OVCAR-4 ovarian)
0.358 µM: TGI (SK-MEL-2 melanoma)
0.223 µM: TGI (UO-31 renal)
0.437 µM: TGI (A498 renal)
0.763 µM: TGI (TK-10 renal)
0.192 µM: TGI (MCF7 breast)
0.187 µM: TGI (NCI-H522 lung)
1.07 µM: TGI (UACC-257 melanoma)
2.13 µM: TGI (HL-60(TB) leukemia)
0.3 µM: TGI (K-562 leukemia)
0.254 µM: TGI (HCC-2998 colon)
0.339 µM: TGI (DU-145 prostate)
0.108 µM: TGI (IGROV1 ovarian)
0.961 µM: TGI (NCI-H226 lung)
0.431 µM: TGI (CCRF-CEM leukemia)
inactive: GI50 (HOP-92 NSCLC) 1.24 µM
0.318 µM: TGI (HOP-62 NSCLC)
2.58 µM: TGI (HOP-92 NSCLC)

CCOC(=O)/C=C(/N=P(c1ccccc1)(c1ccccc1)c1ccccc1)C(F)(F)F
> 100 µM: TGI (HCC-2998 colon) | TGI (SK-OV-3 ovarian) | TGI (NCI-H522 lung) | TGI (T-47D breast) | TGI (UO-31 renal)
